Reference: patent US20100284985A1, “Composition” (Danisco A/S, priority 2007, published 2010)

What was measured:
[1] = system: Listeria monocytogenes DCS 489; assay: FIC checkerboard assay, LAE with Nisaplin; format: cell-based
Experimental: (§1) The Fractional Inhibition Concentration (FIC) assay is also a 96 well liquid based assay with a checkerboard titration layout (7, 8), one plate for each strain and sets of concentrations. Cultivation media can be seen in Appendix 1. O.D. at 620 nm is read at zero hours (at strain addition) and after a 24-hour incubation period. […] The FICs for the two substances are plotted towards each other in a graph called an isobologram. […] Additionally, the FIC index is then calculated as follows: FICindex=FICA+FICB, if FICindex is lower than 1 there is synergy, if it is higher than one there is antagony and if it is equal to one there is an additive effect.
(§2) FICs were determined for LAE in combination with Nisaplin and Natamax for strains in Table 1A and B.

[2] = system: Brochothrix thermosphacta DCS 780; assay: FIC checkerboard assay, LAE with Nisaplin; format: cell-based
Experimental: as §1, §2

[3] = system: Bacillus licheniformis DCS 561; assay: FIC checkerboard assay, LAE with Nisaplin; format: cell-based
Experimental: as §1, §2

[4] = system: Lactobacilllus sakei DCS 608; assay: MIC assay, LAE; format: cell-based, Lactobacillus sakei; details: Latilactobacillus sakei, DCS608, ppm of the active component
Experimental: (§3) The Minimal Inhibition Concentration Assay (MIC) is a 96 well liquid based assay developed for a semi-automated assessment system and performed essentially as described in (7). […] From an overnight culture […] of each strain was inoculated in one well corresponding to an approximate inoculation density of 10^3-10^4 cells/well. Media used were CASO, MRS and YM (Appendix 1). Strains were incubated at 20° C., 25° C., 37° C. and under aerobic/anaerobic conditions depending on the preferred conditions for the particular strain (Appendix 1). At time zero, after adding the AM, the optical density (O.D.) of the bacterial culture is measured at 620 nm and then again after 24 hours. […] MIC is defined as the lowest concentration of the AM that will inhibit measurable growth. A bacteriostatic effect is defined as the OD620 at 24 h being less than or equal to 20% of the growth control.

[5] = system: Klebsiella oxytoca DCS 567; assay: MIC assay, LAE; format: cell-based
Experimental: as §3

Listeria innocua DCS 17 = assay: MIC assay, LAE; format: cell-based
Experimental: as §3

[6] = system: Salmonella typhimurium DCS 223; assay: MIC assay, LAE; format: cell-based; details: ppm of the active component
Experimental: as §3

[7] = system: Saccharomyces cerevisiae DCS 599; assay: MIC assay, LAE; format: cell-based
Experimental: as §3

[8] = system: Leuconostoc mesenteroides ss DCS 512; assay: MIC assay, LAE; format: cell-based
Experimental: as §3

[9] = system: Lactobacilllus farciminis DCS 611; assay: MIC assay, LAE; format: cell-based; details: ppm of the active component
Experimental: as §3

[10] = system: Citrobacter freundii DCS 566; assay: MIC assay, LAE; format: cell-based
Experimental: as §3

Escherichia coli DCS 497 = assay: MIC assay, LAE; format: cell-based
Experimental: as §3

[11] = system: Staphylococcus aureus DCS 630; assay: MIC assay, LAE; format: cell-based
Experimental: as §3

[12] = system: Bacillus licheniformis (spores) DCS 561sp; assay: MIC assay, LAE; format: cell-based; details: ppm of the active component
Experimental: as §3

[13] = system: Rhodotorula mucilaginosa H116; assay: MIC assay, LAE; format: cell-based; details: ppm of the active component
Experimental: as §3

[14] = system: Clostridium sporogenes (spores) DCS 541sp; assay: MIC assay, LAE; format: cell-based; details: ppm of the active component
Experimental: as §3

[15] = system: Zygosaccharomyces bailii DCS 538; assay: MIC assay, LAE; format: cell-based
Experimental: as §3

[16] = system: Listeria monocytogenes DCS 489; assay: MIC assay, LAE; format: cell-based
Experimental: as §3

[17] = Klebsiella oxytoca, DCS567, ppm of the active component
[18] = Listeria innocua, DCS17, ppm of the active component
[19] = Salmonella enterica, TYPHIMURIUM
[20] = Saccharomyces cerevisiae, DCS599, ppm of the active component
[21] = Leuconostoc mesenteroides, SSDCS512, ppm of the active component
[22] = Citrobacter freundii, DCS566, ppm of the active component
[23] = Escherichia coli, DCS497, ppm of the active component
[24] = Staphylococcus aureus, DCS630, ppm of the active component
[25] = Zygosaccharomyces bailii, DCS538, ppm of the active component
[26] = Listeria monocytogenes, DCS489, ppm of the active component

CCCCCCCCCCCC(=O)N[C@@H](CCCNC(=N)N)C(=O)OCC.Cl [LAE, N^α-Lauroyl-L-arginine ethyl ester monohydrochloride]
FICLAE ([1]; Nisaplin 0 ppm + LAE 50 ppm): 1.00
FICLAE ([1]; Nisaplin 50 ppm + LAE 22 ppm): 0.44
FICLAE ([1]; Nisaplin 90 ppm + LAE 15 ppm): 0.30
FICLAE ([1]; Nisaplin 130 ppm + LAE 5 ppm): 0.09
FICLAE ([1]; Nisaplin 170 ppm + LAE 4 ppm): 0.04
FICLAE ([1]; Nisaplin 210 ppm + LAE 1 ppm): 0.02
FICLAE ([1]; Nisaplin 250 ppm + LAE 0 ppm): 0.00
FICLAE ([2]; Nisaplin 50 ppm + LAE 33 ppm): 0.67
FICLAE ([2]; Nisaplin 90 ppm + LAE 22 ppm): 0.44
FICLAE ([2]; Nisaplin 210 ppm + LAE 0 ppm): 0.00
FICLAE ([3]; Nisaplin 50 ppm + LAE 22.2 ppm): 0.44
FICLAE ([3]; Nisaplin 130 ppm + LAE 14.8 ppm): 0.30
FICLAE ([3]; Nisaplin 210 ppm + LAE 9.9 ppm): 0.20
FICLAE ([3]; Nisaplin 250 ppm + LAE 0 ppm): 0.00
MBC [4]: > 166 µg/mL
MIC [4]: 32.8 µg/mL
MBC [5, 17]: 41 µg/mL
MIC [5, 17]: 32.8 µg/mL
increased lag phase ([5]; ppm of the active component): 18.2 ppm
MBC (Listeria innocua DCS 17; [18]): 21.9 µg/mL
MIC (Listeria innocua DCS 17; [18]): 12.1 µg/mL
increased lag phase (Listeria innocua DCS 17; ppm of the active component): 5.4 ppm
MBC [6, 19]: 32.8 µg/mL
MIC [6, 19]: 21.9 µg/mL
increased lag phase [6]: 14.6 ppm
MBC [7, 20]: 14.6 µg/mL
MIC [7, 20]: 14.6 µg/mL
increased lag phase ([7]; ppm of the active component): 14.6 ppm
MBC [8, 21]: > 166 µg/mL
MIC [8, 21]: 41 µg/mL
increased lag phase ([8]; ppm of the active component): 32.8 ppm
MBC [9]: > 166 µg/mL
MIC [9]: 49.2 µg/mL
increased lag phase [9]: 49.2 ppm
MBC [10, 22]: 21.9 µg/mL
MIC [10, 22]: 18.2 µg/mL
increased lag phase ([10]; ppm of the active component): 8.1 ppm
MBC (Escherichia coli DCS 497; [23]): 21.9 µg/mL
MIC (Escherichia coli DCS 497; [23]): 21.9 µg/mL
increased lag phase (Escherichia coli DCS 497; ppm of the active component): 18.2 ppm
MBC [11, 24]: 18.3 µg/mL
MIC [11, 24]: 14.6 µg/mL
increased lag phase ([11]; ppm of the active component): 14.6 ppm
MBC ([12]; Bacillus licheniformis): 61.5 µg/mL
MIC ([12]; Bacillus licheniformis): 6.5 µg/mL
increased lag phase [12]: 6.5 ppm
MBC ([13]; Rhodotorula mucilaginosa): 6.5 µg/mL
MIC ([13]; Rhodotorula mucilaginosa): 6.5 µg/mL
increased lag phase [13]: 4.3 ppm
MBC ([14]; Clostridium sporogenes): 14.6 µg/mL
MIC ([14]; Clostridium sporogenes): 9.7 µg/mL
increased lag phase [14]: 9.7 ppm
MBC [15, 25]: 6.5 µg/mL
MIC [15, 25]: 6.5 µg/mL
increased lag phase ([15]; ppm of the active component): 4.3 ppm
MBC [16, 26]: 14.6 µg/mL
MIC [16, 26]: 12.1 µg/mL
increased lag phase ([16]; ppm of the active component): 9.7 ppm
